Reference: patent US11986471B2, “Compounds and methods of use” (Tango Therapeutics, Inc., priority 2018, dated 2024)

What was measured:
PRMT5 [1] = molecular target: T1, PRMT5 (Homo sapiens, UniProt O14744); experiment: PRMT5 IC50 assay in the presence of SAM as cofactor; format: biochemical
T1 construct: purchased Viva (custom protein)
Summary of the method: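 IC50 values were measured against human PRMT5 with SAM, with MTA, or with no cofactor. Ki was derived from IC50 as Ki=IC50/1.5 with SAM and Ki=IC50/13.5 with MTA, and the Ki(SAM)/Ki(MTA) ratio was then taken.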

PRMT5 [2] = molecular target: T1, PRMT5; experiment: PRMT5 IC50 assay in the presence of MTA as cofactor; format: biochemical; conditions: for IC50: PRMT5, MTA as cofactor; for SAM/MTA Ratio: ratio between Ki in the presence of SAM and Ki in the presence of MTA
Summary of the method: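 For the SAM-containing format, dividing IC50 by 1.5 yields Ki; for the MTA-containing format the divisor is 13.5. A third format without cofactor gives IC50 alone.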

HAP1 MTAP-intact = experiment: SDMA in-cell western assay, HAP1 MTAP-intact cell line; format: cell-based; conditions: Homo sapiens
Summary of the method: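 IC50 values come from SDMA in-cell western staining of HAP1 cells. The MTAP-intact line carries endogenous MTAP, while its MTAP-deleted counterpart lacks MTAP entirely. A selectivity ratio of at least 3 fold marks a compound as MTAP-selective.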

PRMT5 [3] = molecular target: T1, PRMT5; experiment: PRMT5 IC50 assay with no cofactor; format: biochemical; conditions: read-out: No Co-factor IC50
Summary of the method: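 Values reflect IC50 (μM) on human PRMT5 under three cofactor states. Selectivity is derived as the quotient of SAM-state Ki over MTA-state Ki, with each Ki obtained from its IC50.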

HAP1 MTAP-deleted = experiment: SDMA in-cell western assay, HAP1 MTAP-deleted cell line; format: cell-based; conditions: for IC50: Homo sapiens, HAP1 MTAP-deleted cell line; for MTAP Intact/Deleted Ratio: IC50 ratio HAP1 MTAP-intact / HAP1 MTAP-deleted
Summary of the method: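 Readout is cellular SDMA signal by in-cell western, with IC50 values derived from it. The cells are MTAP-null HAP1, matched to an isogenic MTAP-intact HAP1 line.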

T1 sequence (O14744 whole entry): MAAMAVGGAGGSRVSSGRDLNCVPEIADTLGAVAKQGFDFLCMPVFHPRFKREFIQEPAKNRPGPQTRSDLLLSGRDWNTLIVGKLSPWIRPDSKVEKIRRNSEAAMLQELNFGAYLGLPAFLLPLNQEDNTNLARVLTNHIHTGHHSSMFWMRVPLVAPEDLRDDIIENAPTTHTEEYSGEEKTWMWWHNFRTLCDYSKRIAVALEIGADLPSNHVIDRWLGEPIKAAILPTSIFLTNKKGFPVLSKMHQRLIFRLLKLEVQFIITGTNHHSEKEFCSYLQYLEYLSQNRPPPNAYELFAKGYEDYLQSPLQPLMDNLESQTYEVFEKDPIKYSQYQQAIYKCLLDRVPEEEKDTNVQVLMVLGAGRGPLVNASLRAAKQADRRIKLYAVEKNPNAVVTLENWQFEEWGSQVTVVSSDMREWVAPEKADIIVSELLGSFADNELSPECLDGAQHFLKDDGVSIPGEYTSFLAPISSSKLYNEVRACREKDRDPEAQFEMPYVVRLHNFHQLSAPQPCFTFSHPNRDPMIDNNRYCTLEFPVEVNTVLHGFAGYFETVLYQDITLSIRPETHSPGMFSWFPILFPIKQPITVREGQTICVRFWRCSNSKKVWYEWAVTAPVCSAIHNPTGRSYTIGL
T1 sequence (Q9BQA1 whole entry partner): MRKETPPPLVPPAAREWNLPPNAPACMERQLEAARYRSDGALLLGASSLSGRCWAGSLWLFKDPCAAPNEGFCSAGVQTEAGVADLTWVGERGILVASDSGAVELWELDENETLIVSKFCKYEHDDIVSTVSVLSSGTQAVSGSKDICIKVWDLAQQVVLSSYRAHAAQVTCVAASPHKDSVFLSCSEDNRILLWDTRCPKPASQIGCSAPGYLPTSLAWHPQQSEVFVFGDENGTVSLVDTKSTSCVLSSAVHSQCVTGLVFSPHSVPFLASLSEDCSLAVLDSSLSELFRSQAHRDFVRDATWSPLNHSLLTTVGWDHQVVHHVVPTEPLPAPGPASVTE

SMILES	IC50 (PRMT5 [1]) [µM]	IC50 (PRMT5 [2]) [µM]	IC50 (HAP1 MTAP-intact) [µM]	IC50 (PRMT5 [3]) [µM]	IC50 (HAP1 MTAP-deleted) [µM]	SAM/MTA Ratio (PRMT5 [2])	MTAP Intact/Deleted Ratio (HAP1 MTAP-deleted)
O=C(NC[C@H](O)CN1CCc2c(ccc(OCc3cnco3)c2Cl)C1)c1ccnc(NC2CC(F)(F)C2)c1 [Compound 357, (S)—N-(3-(5-chloro-6-(oxazol-5-ylmethoxy)-3,4-dihydroisoquinolin-2(1H)-yl)-2-hydroxypropyl)-2-((3,3-difluorocyclobutyl)amino)isonicotinamide]	0.5 to 5	0.05 to 0.5	≥ 10	≥ 5	≥ 10	A (a Ki ratio greater than or equal to 10 fold between the Ki in the presence of SAM and the Ki in the presence of MTA)	C* (an IC50 ratio of less than 3 fold between the IC50 in the HAP1 MTAP-intact cell line and the HAP1 MTAP-deleted cell line)
Cc1ncoc1COc1ccc2c(c1Br)CCN(C[C@@H](O)CNC(=O)c1cc(NC3CCCC3)ncn1)C2 [Compound 358, (S)—N-(3-(5-bromo-6-((4-methyloxazol-5-yl)methoxy)-3,4-dihydroisoquinolin-2(1H)-yl)-2-hydroxypropyl)-6-(cyclopentylamino)pyrimidine-4-carboxamide]	0.5 to 5	0.5 to 5	≥ 10	≥ 5	≥ 10	A (a Ki ratio greater than or equal to 10 fold between the Ki in the presence of SAM and the Ki in the presence of MTA)	C* (an IC50 ratio of less than 3 fold between the IC50 in the HAP1 MTAP-intact cell line and the HAP1 MTAP-deleted cell line)
O=C(NC[C@H](O)CN1CCc2c(ccc(OCc3cnco3)c2Cl)C1)c1cncc(NC2CCOC2)c1 (stereo partly drawn) [Compound 359, N—((S)-3-(5-chloro-6-(oxazol-5-ylmethoxy)-3N-dihydroisoquinolin-2(1H)-yl)-2-hydroxypropyl)-5-((tetrahydrofuran-3-yl)amino)nicotinamide]	0.5 to 5	0.5 to 5	≥ 10	≥ 5	1 to 10	A (a Ki ratio greater than or equal to 10 fold between the Ki in the presence of SAM and the Ki in the presence of MTA)	C* (an IC50 ratio of less than 3 fold between the IC50 in the HAP1 MTAP-intact cell line and the HAP1 MTAP-deleted cell line)

Continued, in another order:

IC50 (PRMT5 [1]) [µM]	IC50 (PRMT5 [2]) [µM]	IC50 (HAP1 MTAP-intact) [µM]	IC50 (PRMT5 [3]) [µM]	IC50 (HAP1 MTAP-deleted) [µM]	SMILES	SAM/MTA Ratio (PRMT5 [2])	MTAP Intact/Deleted Ratio (HAP1 MTAP-deleted)
0.5 to 5	0.05 to 0.5	≥ 10	≥ 5	≥ 10	O=C(NC[C@H](O)CN1CCc2cc(OCc3cnco3)ccc2C1)c1cncc(NC2CCOC2)c1 (stereo partly drawn) [Compound 355, N—((S)-2-hydroxy-3-(6-(oxazol-5-ylmethoxy)-3,4-dihydroisoquinolin-2(1H)-yl)propyl)-5-((tetrahydrofuran-3-yl)amino)nicotinamide]	A (a Ki ratio greater than or equal to 10 fold between the Ki in the presence of SAM and the Ki in the presence of MTA)	C* (an IC50 ratio of less than 3 fold between the IC50 in the HAP1 MTAP-intact cell line and the HAP1 MTAP-deleted cell line)
0.05 to 0.5	0.05 to 0.5	≥ 10	≥ 5	≥ 10	Cc1c(OCc2cnco2)ccc2c1CCN(C[C@@H](O)CNC(=O)c1ccnc(NC3CCCC3)c1)C2 [Compound 356, 2-(cyclopentylamino)-N-[(2S)-2-hydroxy-3-{5-methyl-6-[(1,3-oxazol-5-yl)methoxy]-1,2,3,4-tetrahydroisoquinolin-2-yl}propyl]pyridine-4-carboxamide]	A (a Ki ratio greater than or equal to 10 fold between the Ki in the presence of SAM and the Ki in the presence of MTA)	C* (an IC50 ratio of less than 3 fold between the IC50 in the HAP1 MTAP-intact cell line and the HAP1 MTAP-deleted cell line)
